Laboratory results taken from US20130205416A1 (priority 2010, published 2013).
pIC50: −log10 of the molar value. “And” between values parts separate entries of the source, which are not always exact repeats. Identical values can stand only once. Square brackets hold non-standard residues; d marks the D form. Ends that are not written are not given here.

What was measured:
[1] = tested on: H1N1 viruses (A/WSN/33 and A/England/195/09); settings: for pIC50: viruses (A/WSN/33 and A/England/195/09)
[2] = tested on: H3N2 viruses (A/Udorn and A/Victoria/3/75); settings: for pIC50: viruses (A/Udorn and A/Victoria/3/75)
A/WSN/33 H1N1 virus [3] = assay type: cell-based, Influenza A virus
[4] = tested on: PR8/Eng09 H1N1 virus (A/England/195/09); assay type: cell-based, Influenza A virus
[5] = tested on: PR8/Vic H3N2 virus (A/Victoria/3/75); assay type: cell-based, Influenza A virus
[6] = tested on: PR8/Viet H5N1 virus (A/Vietnam/1194/04); assay type: cell-based, Influenza A virus
A/WSN/33 influenza virus = tested on: A/WSN/33 influenza virus; design: species or system BALB/c mice; settings: mouse
A/WSN/33 H1N1 virus [7] = assay type: cell-based, Influenza A virus; remark: listed apart in the source
[8] = mouse, in vivo
[9] = tested on: Semliki Forest virus (SFV); assay type: cell-based
[10] = tested on: human parainfluenza virus; assay type: cell-based
[11] = tested on: attachment of A/WSN/33 (H1N1) virus to MDCK cells; assay type: cell-based, Influenza A virus
[12] = target: recombinant Haemagglutinin (HA) (California 04/2009 H1N1 Influenza A) (Influenza A virus, UniProt C3W5S1); assay type: binding
recombinant Haemagglutinin (HA) (California 04/2009 H1N1 Influenza A), sequence (C3W5S1 entry or part of it, added parts left off): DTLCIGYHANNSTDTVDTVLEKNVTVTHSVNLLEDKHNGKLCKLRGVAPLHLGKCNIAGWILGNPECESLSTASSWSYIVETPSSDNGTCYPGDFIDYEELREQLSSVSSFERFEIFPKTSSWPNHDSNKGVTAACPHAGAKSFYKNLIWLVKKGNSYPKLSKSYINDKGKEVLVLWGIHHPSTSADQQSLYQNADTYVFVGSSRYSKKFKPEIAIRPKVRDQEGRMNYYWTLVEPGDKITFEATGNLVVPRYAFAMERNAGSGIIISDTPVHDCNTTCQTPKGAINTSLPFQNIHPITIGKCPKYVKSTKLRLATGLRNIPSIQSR

Substance: WLVFFVIAYFAR [FP2, WLVFFVIAYFAR]
- pIC50 [1]: 8.80
- pIC50 [2]: 8.80

Substance: RRKKWLVFFVIYFFR [FP4, RRKKWLVFFVIYFFR]
- knockdown of plaque formation (A/WSN/33 H1N1 virus [3]): 100%
- knockdown [4]: 90%
- knockdown [5]: 97%
- knockdown [6]: complete knockdown
- agglutination end point (horse RBCs): 6.25 µg/mL
- agglutination end point (human RBCs): 0.78 µg/mL
- inhibition of lung viral titres in vivo (A/WSN/33 influenza virus): effective
- clinical indications (A/WSN/33 influenza virus; in vivo): no clinical indications
- survival of mice (A/WSN/33 influenza virus; in vivo): 100%
- reduction in virus yield (A/WSN/33 H1N1 virus [7]): 99% and 50%
- pIC50 [1]: 7.00 to 7.18
- immunogenicity (serum IgG by ELISA) [8]: neither FP2 nor FP4 peptides were immunogenic

Substance: WLVFFVIFYFFR [FP1]
- knockdown of plaque formation (A/WSN/33 H1N1 virus [3]): 94%
- antiviral effects [9]: no antiviral effects
- antiviral effects [10]: no antiviral effects
- antiviral activity in vivo (body weight, lung virus titre) (A/WSN/33 influenza virus): potent antiviral activity

Substance: RRKK-IFYFFR [FP7]
- inhibition of H1N1 infection [1]: failed to inhibit
- inhibition of H3N2 infection [2]: failed to inhibit

Substance: PEG300-RRKKWLVFFVIFYFFR [FP4-PEG]
- reduction in virus yield (A/WSN/33 H1N1 virus [7]): 68%
- virus yield (A/WSN/33 H1N1 virus [7]): No virus was detected

Substance: FFVIFYRRKK [FP9, FFVIFYRRKK]
- anti-viral activity (A/WSN/33 H1N1 virus [3]): substantial anti-viral activity
- knockdown of plaque formation (A/WSN/33 H1N1 virus [3]): 94%
- inhibition of H1N1 infection [1]: very effective
- pIC50 [1]: 5.82
- inhibition of H3N2 infection [2]: to a lesser extent

Substance: FP1-D: FP1 prepared with D-amino acids (SEQ ID NO 20) ([dW][dL][dV][dF][dF][dV][dI][dF][dY][dF][dF][dR])
- reduction in virus yield (A/WSN/33 H1N1 virus [7]): 85% and 68%
- inhibition of H1N1 virus infection [1]: inhibit
- inhibition of H3N2 virus infection [2]: inhibit

Substance: IVWFYLFRFFVF [FP10, IVWFYLFRFFVF]
- inhibition of lung viral titres in vivo (A/WSN/33 influenza virus): values similar to the control groups
- pIC50 [1]: > 8.83
- pIC50 [2]: 7.14

Substance: WLVFFVRRKK [FP8]
- anti-viral activity (A/WSN/33 H1N1 virus [3]): substantial anti-viral activity
- knockdown of plaque formation (A/WSN/33 H1N1 virus [3]): 94%

Substance: WLVFFVIFYFFRRRKK [FP3, WLVFFVIFYFFRRRKK]
- knockdown of plaque formation (A/WSN/33 H1N1 virus [3]): 100%
- inhibition of viral attachment [11]: completely inhibited
- binding to HA [12]: can bind Influenza A HA
- agglutination end point (horse RBCs): 6.25 µg/mL
- agglutination end point (human RBCs): 0.78 µg/mL
- pIC50 [1]: 7.00 to 7.18
- inhibition of H3N2 infection [2]: only weakly inhibit
- pIC50 [2]: 4.80
